This is an account of results in patent US8399014B2, “Physiologically active complex comprising protamine and/or salt therefor and an acidic macromolecular substance, and use thereof” (Maruha Nichiro Foods, Inc., priority 2008, dated 2013).

For test [1], the system named is blood tri-glyceride level. Nature of the test: Animal test of fat absorption suppressive effect: blood tri-glyceride AUC after corn oil. It counts as in vivo. As to conditions: Male SD rats. As to the method: (1) Sample for control group: Distilled water was filtrated by a membrane filter (DISMIC-13CP, PTFE, φ0.45 μm, ADVANTEC) and used as a test sample for the control group.
(2) Sample for protamine group: Protamine (2.50 g) was dissolved in distilled water (50 mL) filtrated by a membrane filter and used as a test sample for the protamine group.
(3) Sample for alginate mixture group: As a dispersant, soybean polysaccharide (SM-700, 400 mg) was dissolved in distilled water (50 mL) filtrated by a membrane filter to prepare a 0.8% dispersant solution. Protamine (2.00 g) was dissolved with the 0.8% dispersant solution (20 mL) to prepare a protamine solution. To the protamine solution (12.5 mL), an alginate solution (12.5 mL), which was prepared by dissolving alginate (1.60 g) in the 0.8% dispersant solution (20 mL), was added while stirring to prepare a protamine complex suspension and used as a test sample for an alginate complex (mixture) group.
(4) Sample for gum arabic mixture group: Protamine (2.00 g) was dissolved in distilled water (20 mL) to prepare a protamine solution. […]
Evaluation was performed using Male SD rats (6 weeks old, 7 rats per group). […] Using the plasma samples, a blood tri-glyceride level was measured and compared to the control group with respect to blood-level area under the curve (AUC).

The test system of the next test is fat absorption. As to conditions: oral; protamine dose of 0.5 g; cited from earlier work.

Regarding protamine, the “fat absorption suppressive effect compared to the control group” value in test [1] (oral, corn oil load) is “significant fat absorption suppressive effect”. Besides, in test [1] (test substance 5 mL/kg orally (corresponding to 0.5 g/kg in terms of protamine), then corn oil 5 mL/kg, blood at 0, 1.5, 3.0, 4.5 hours), the “AUC relative to control group (blood tri-glyceride level)” value is given as 78 ± 7%. Further, the “fat absorption suppressive effect when orally taken by humans” value in the test on fat absorption is given as “exerts a fat absorption suppressive effect”.
